The minimal effective concentration is the lowest level tested that produced the effect sought.

The values that follow come from US8193185B2, “Use of tryptanthrin compounds for immune potentiation” (Novartis Vaccines and Diagnostics, Inc., priority 2003, dated 2012).

A value given as a limit tells only on which side of the number the result lay.

The assay has as its system human peripheral blood mononuclear cells (PBMC). Description: HTS assay for small molecule immune potentiators: TNF-a production by human PBMC (sandwich ELISA). It counts as cell-based. As to conditions: human PBMC 500,000 per mL, 18 h at 37° C., secreted TNF by sandwich ELISA. An excerpt: Candidate small molecule immune potentiators can be identified in vitro. Compounds are screened in vitro for their ability to stimulate human peripheral blood mononuclear cells to produce cytokines (e.g. TNF-a and IL-12 p40). Apoptosis inducing small molecules may be identified having this activity. These small molecule immunopotentiators have potential utility as adjuvants and immunotherapeutics.
In an assay procedure (High Throughput Screening (HTS)) for small molecule immune potentiators (SMIPs), human peripheral blood mononuclear cells (PBMC), 500,000 per mL in RPMI 1640 medium with 10% FCS, are distributed in 96 well plates (100,000 per well) already containing 5 μM of compound in DMSO. The PBMCs are incubated for 18 h at 37° C. in 5% CO2. Their ability to produce cytokines in response to the small molecule compounds is determined using a modified sandwich ELISA.
Briefly supernatants from the PBMC cultures are assayed for secreted TNF using a primary plate bound antibody for capture followed by a secondary biotinylated anti-TNF antibody forming a sandwich. The biotinylated second antibody is then detected using streptavidin-Europium and the amount of bound europium is determined by time resolved fluorescence. Compounds are screened for their TNF inducing activity that is measured in the assay as increased Europim counts over cells incubated in RPMI medium alone. “Hits” are selected based on their TNF-inducing activity relative to an optimal dose of lipopolysaccaride LPS (1 μg/ml), a strong TNF inducer. The robustness of the assay and low backgrounds have allowed for the routine selection of hits with ˜10% of LPS activity that is normally between 5-10× background (cells alone). Selected hits are then subjected to confirmation for their ability to induce cytokines from multiple donors at decreasing concentrations. Those compounds with consistent activity at or below 5 μM are considered confirmed for the purposes of this assay. The assay is readily modified for screening for compounds effective at higher or lower concentrations.
For orientation: In an ELISA, binding on a coated surface is turned into a signal by an enzyme label.

On to `CC(=O)OCCCC/C=C/c1ccc2c(c1)C(=O)c1nc3ncccc3c(=O)n1-2` [Compound 1033, (5E)-6-(5,11-dioxo-5,11-dihydropyrido[2′,3′:4,5]py-rimido[1,2-a]indol-9-yl)hex-5-enyl acetate], for which the minimal effective concentration was at most 1.5 µM.

For the compound `O=C1c2cc(C(F)(F)F)ccc2-n2c1nc1ncccc1c2=O` [Compound 1034, 9-(trifluoromethyl)pyrido[2′, 3′:4,5]pyrimido[1,2-a]indole-5,11-dione], the minimal effective concentration was at least 5 µM.

For `O=C1c2cc(CCCCCCOP(=O)(O)O)ccc2-n2c1nc1ncccc1c2=O` [Compound 1035, 6-(5,11-dioxo-5,11-dihydropyrido[2′,3′:4,5]py-rimido[1,2-a]indol-9-yl)hexyl dihydrogen phosphate], the minimal effective concentration is at most 1.5 µM.

As to `O=C1c2cc(OC(F)(F)F)ccc2-n2c1nc1ncccc1c2=O` [Compound 1036, 9-[(trifluoromethyl)oxy]pyri-do[2′,3′:4,5]pyrimido[1,2-a]indole-5,11-dione], the minimal effective concentration was at most 1.5 µM.

Take `O=C1c2ccccc2-n2c1nc1ccccc1c2=O` [Compound 1037, indolo[2,1-b]quinazoline-6,12-dione]: the minimal effective concentration was at least 20 µM.

Take `O=C1c2cc(Cl)ccc2-n2c1nc1ccccc1c2=O` [Compound 1038, 8-chloroindolo[2,1-b]quinazoline-6,12-dione]: the minimal effective concentration is at least 20 µM.

Turning to `CCOC(=O)c1ccc2c(c1)C(=O)c1nc3ccccc3c(=O)n1-2` [Compound 1039, ethyl 6,12-dioxo-6,12-dihydroindolo[2,1-b]quinazoline-8-carboxylate], the minimal effective concentration is at least 20 µM.

As to `O=C1c2cc(I)ccc2-n2c1nc1c(O)cccc1c2=O` [Compound 1040, 4-hydroxy-8-iodoindolo[2,1-b]quinazoline-6,12-dione], the minimal effective concentration is at least 20 µM.

With `O=C1c2cc(I)ccc2-n2c1nc1c(Cl)cc(Cl)cc1c2=O` [Compound 1041, 2,4-dichloro-8-iodoindolo[2,1-b]quinazoline-6,12-dione], the minimal effective concentration was at least 20 µM.

With `O=C1c2cc(I)ccc2-n2c1nc1ccc(I)cc1c2=O` [Compound 1042, 2,8-diiodoindolo[2,1-b]quinazoline-6,12-dione], the minimal effective concentration is at least 20 µM.

Take `O=C1c2cc(I)ccc2-n2c1nc1c(I)cc(I)cc1c2=O` [Compound 1043, 2,4,8-triiodoindolo[2,1-b]quinazoline-6,12-dione]: the minimal effective concentration is at least 20 µM.

With `O=C1c2cc(F)ccc2-n2c1nc1c(OCc3ccccc3)cccc1c2=O` [Compound 1044, 8-fluoro-4-[(phenylmethyl)oxy]indolo [2,1-b]quinazoline-6,12-dione], the minimal effective concentration was at least 20 µM.

Take `O=C1c2cc(Cl)ccc2-n2c1nc1cc(N3CCOCC3)ccc1c2=O` [Compound 1045, 8-chloro-3-morpholin-4-ylindolo[2,1-b]quinazoline-6,12-dione]: the minimal effective concentration is at least 20 µM.

With `O=C1c2cc(C(F)(F)F)ccc2-n2c1nc1ccccc1c2=O` [Compound 1046, 8-(trifluoromethyl)indolo[2,1-b]quinazoline-6,12-dione], the minimal effective concentration was at least 20 µM.

As for `CN(CC(=O)O)c1ccc2c(=O)n3c(nc2c1)C(=O)c1cc(Cl)ccc1-3` [Compound 1047, [(8-chloro-6,12-dioxo-6,12-dihydroindolo[2,1-b]quinazolin-3-yl)(methyl)amino]acetic acid], the minimal effective concentration was at least 20 µM.

Turning to `CN(CCOC(=O)CCC(=O)O)c1ccc2c(=O)n3c(nc2c1)C(=O)c1cc(Cl)ccc1-3` [Compound 1048, 4-({2-[(8-chloro-6,12-dioxo-6,12-dihydroindolo[2,1-b]quinazolin-3-yl)(methyl)amino]ethyl}oxy)-4-oxobutanoic acid], the minimal effective concentration was at least 20 µM.
